Patent US12264159B2, “Functionalized heterocycles as antiviral agents” (Enanta Pharmaceuticals, Inc., priority 2018, dated 2025)

How the values were obtained:
[1] = tested on: HBV in 2.2.15 cells; test: 2.2.15 cells: viral product in cell lysates quantified via quantitative real time PCR; assay type: cell-based, hepatitis B virus (HBV); details: Hepatitis B virus, 120 h, day 5 post treatment, 50% reduction of viral product vs no drug controls, readout (qPCR, HBsAg or HBeAg) not specified for the column
How it was run: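 2.2.15 cells (35,000/well, DMEM/F12, 10% FBS, G418) were treated with 5-fold serial compound dilutions, 0.5% DMSO final. After 5 days, lysates were quantified by qPCR, or supernatant HBsAg/HBeAg by ELISA; EC50 is the concentration giving 50% reduction versus no-drug controls.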

[2] = Compound induced cellular toxicity in HepG2 cells, ATPlite 1Step; assay type: cell-based; details: human, three days exposure, 50% reduction of total ATP vs no drug controls
Procedure: At day 3, post seeding cells are treated with ATPlite 1Step according to the manufacturer's instructions.

SMILES | EC50 [1] | CC50 at 3 days [2]
Cc1cccc(-c2c(C3CC3)nn3c2-c2cc(=O)c(C(=O)O)cn2[C@H](C(C)(C)C)C3)c1 [Example 153, (R)-6-(tert-butyl)-2-cyclopropyl-10-oxo-1-(m-tolyl)-5,6-dihydro-10H-pyrazolo[1,5-a]pyrido[2,1-c]pyrazine-9-carboxylic acid] | < 0.1 µM | 10 to 25 µM
CC(C)(C)[C@@H]1Cn2nc(-c3ccc(C(F)(F)F)cc3)cc2-c2cc(=O)c(C(=O)O)cn21 [Example 9, (R)-6-(tert-butyl)-10-oxo-2-(4-(trifluoromethyl)phenyl)-5,6-dihydro-10H-pyrazolo[1,5-a]pyrido[2,2-c]pyrazine-12-carboxylic acid] | < 0.1 µM | > 25 µM
CC(C)[C@@H]1Cn2nc(C3CC3)c(-c3ccc(O)cc3)c2-c2cc(=O)c(C(=O)O)cn21 [Example 143, (R)-2-cyclopropyl-1-(4-hydroxyphenyl)-6-isopropyl-10-oxo-5,6-dihydro-10H-pyrazolo[1,5-a]pyrido[2,1-c]pyrazine-9-carboxylic acid] | < 0.1 µM | > 25 µM
COc1cc(-c2cc3n(n2)C[C@@H](C(C)(C)C)n2cc(C(=O)O)c(=O)cc2-3)c(OC)nn1 [Example 16, (R)-6-(tert-butyl)-2-(3,6-dimethoxypyridazin-4-yl)-10-oxo-5,6-dihydro-10H-pyrazolo[1,5-a]pyrido[2,2-c]pyrazine-12-carboxylic acid] | < 0.1 µM | > 25 µM
CC(C)(C)[C@@H]1Cn2nc(-c3ccccc3F)cc2-c2cc(=O)c(C(=O)O)cn21 [Example 3, (R)-6-(tert-butyl)-2-(2-fluorophenyl)-10-oxo-5,6-dihydro-10H-pyrazolo[1,5-a]pyrido[2,2-c]pyrazine-12-carboxylic acid] | < 0.1 µM | > 25 µM
CC(C)(C)[C@@H]1Cn2nc(-c3ccc(F)cc3F)cc2-c2cc(=O)c(C(=O)O)cn21 [Example 8, (R)-6-(tert-butyl)-2-(2,4-difluorophenyl)-10-oxo-5,6-dihydro-10H-pyrazolo[1,5-a]pyrido[2,2-c]pyrazine-12-carboxylic acid] | < 0.1 µM | > 25 µM
CCOc1cc(F)ccc1-c1cc2n(n1)C[C@@H](C(C)(C)C)n1cc(C(=O)O)c(=O)cc1-2 [Example 72, (R)-6-(tert-butyl)-2-(2-ethoxy-4-fluorophenyl)-10-oxo-5,6-dihydro-10H-pyrazolo[1,5-a]pyrido[2,2-c]pyrazine-12-carboxylic acid] | < 0.1 µM | > 25 µM
COc1ccc(OC(F)(F)F)cc1-c1cc2n(n1)C[C@@H](C(C)(C)C)n1cc(C(=O)O)c(=O)cc1-2 [Example 33, (R)-6-(tert-butyl)-2-(2-methoxy-5-(trifluoromethoxy)phenyl)-10-oxo-5,6-dihydro-10H-pyrazolo[1,5-a]pyrido[2,2-c]pyrazine-12-carboxylic acid] | < 0.1 µM | > 25 µM
CC(C)(C)[C@@H]1Cn2nc(C3CC3)c(-c3cccc(F)c3)c2-c2cc(=O)c(C(=O)O)cn21 [Example 147, (R)-6-(tert-butyl)-2-cyclopropyl-1-(3-fluorophenyl)-10-oxo-5,6-dihydro-10H-pyrazolo[1,5-a]pyrido[2,1-c]pyrazine-9-carboxylic acid] | < 0.1 µM | > 25 µM
CC(C)(C)[C@@H]1Cn2nc(-c3ccc4c(c3F)OCO4)cc2-c2cc(=O)c(C(=O)O)cn21 [Example 55, (R)-6-(tert-butyl)-2-(4-fluorobenzo[d][1,3]dioxol-5-yl)-10-oxo-5,6-dihydro-10H-pyrazolo[1,5-a]pyrido[2,2-c]pyrazine-12-carboxylic acid] | < 0.1 µM | > 25 µM
CC(C)[C@@H]1Cn2nc(-c3ccc(F)cc3)c(-c3ccc(F)cc3)c2-c2c(F)c(=O)c(C(=O)O)cn21 [Example 187, (R)-11-fluoro-1,2-bis(4-fluorophenyl)-6-isopropyl-10-oxo-5,6-dihydro-10H-pyrazolo[1,5-a]pyrido[2,1-c]pyrazine-9-carboxylic acid] | < 0.1 µM | 10 to 25 µM
CC(C)(C)[C@@H]1Cn2nc(-c3ccc(Cl)cc3)cc2-c2cc(=O)c(C(=O)O)cn21 [Example 13, (R)-6-(tert-butyl)-2-(4-chlorophenyl)-10-oxo-5,6-dihydro-10H-pyrazolo[1,5-a]pyrido[2,2-c]pyrazine-12-carboxylic acid] | < 0.1 µM | > 25 µM
CC(C)[C@@H]1Cn2nc(-c3ccc(O)cc3)c(-c3ccc(O)cc3)c2-c2c(F)c(=O)c(C(=O)O)cn21 [Example 191, (R)-11-fluoro-1,2-bis(4-hydroxyphenyl)-6-isopropyl-10-oxo-5,6-dihydro-10H-pyrazolo[1,5-a]pyrido[2,1-c]pyrazine-9-carboxylic acid] | < 0.1 µM | > 25 µM
CC(C)(C)[C@@H]1Cn2nc(-c3ccc(F)c4c3OCO4)cc2-c2cc(=O)c(C(=O)O)cn21 [Example 22, (R)-6-(tert-butyl)-2-(7-fluorobenzo[d][1,3]dioxol-4-yl)-10-oxo-5,6-dihydro-10H-pyrazolo[1,5-a]pyrido[2,2-c]pyrazine-12-carboxylic acid] | < 0.1 µM | > 25 µM
O=C(O)c1cn2c(cc1=O)-c1c(-c3cccc(F)c3)c(-c3cccc(F)c3)nn1CC2 [Example 201, 1,2-bis(3-fluorophenyl)-10-oxo-5,6-dihydro-10H-pyrazolo[1,5-a]pyrido[2,1-c]pyrazine-9-carboxylic acid] | < 0.1 µM | > 25 µM
COc1ncc(-c2cc3n(n2)C[C@@H](C(C)(C)C)n2cc(C(=O)O)c(=O)cc2-3)cn1 [Example 6, (R)-6-(tert-butyl)-2-(2-methoxypyrimidin-5-yl)-10-oxo-5,6-dihydro-10H-pyrazolo[1,5-a]pyrido[2,2-c]pyrazine-12-carboxylic acid] | < 0.1 µM | > 25 µM
CC(C)(C)[C@@H]1Cn2nc(C3CC3)c(-c3ccoc3)c2-c2cc(=O)c(C(=O)O)cn21 [Example 152, (R)-6-(tert-butyl)-2-cyclopropyl-1-(furan-3-yl)-10-oxo-5,6-dihydro-10H-pyrazolo[1,5-a]pyrido[2,1-c]pyrazine-9-carboxylic acid] | < 0.1 µM | > 25 µM
CC(C)(C)[C@@H]1Cn2nc(C3CC3)c(-c3cccc4scnc34)c2-c2cc(=O)c(C(=O)O)cn21 [Example 164, (R)-1-(benzo[d]thiazol-4-yl)-6-(tert-butyl)-2-cyclopropyl-10-oxo-5,6-dihydro-10H-pyrazolo[1,5-a]pyrido[2,1-c]pyrazine-9-carboxylic acid] | < 0.1 µM | > 25 µM
CC(C)COc1ccccc1-c1cc2n(n1)C[C@@H](C(C)(C)C)n1cc(C(=O)O)c(=O)cc1-2 [Example 80, (R)-6-(tert-butyl)-2-(2-isobutoxyphenyl)-10-oxo-5,6-dihydro-10H-pyrazolo[1,5-a]pyrido[2,2-c]pyrazine-12-carboxylic acid] | < 0.1 µM | > 25 µM
Cc1cc(-c2cc3n(n2)C[C@@H](C(C)(C)C)n2cc(C(=O)O)c(=O)cc2-3)c(F)cc1F [Example 39, (R)-6-(tert-butyl)-2-(2,4-difluoro-5-methylphenyl)-10-oxo-5,6-dihydro-10H-pyrazolo[1,5-a]pyrido[2,2-c]pyrazine-12-carboxylic acid] | < 0.1 µM | > 25 µM
